Data on 55 compounds can be found in ChEMBL document CHEMBL1133531, “Carbonic anhydrase inhibitors: perfluoroalkyl/aryl-substituted derivatives of aromatic/heterocyclic sulfonamides as topical intraocular pressure-lowering agents with prolonged duration of action” (J Med Chem, 2000).

The target of one assay is Carbonic anhydrase 1 (Homo sapiens, UniProt P00915).
In the next assay the target is T1, Carbonic anhydrase 4 (Bos taurus, UniProt Q95323).
T1 sequence (Q95323 whole entry): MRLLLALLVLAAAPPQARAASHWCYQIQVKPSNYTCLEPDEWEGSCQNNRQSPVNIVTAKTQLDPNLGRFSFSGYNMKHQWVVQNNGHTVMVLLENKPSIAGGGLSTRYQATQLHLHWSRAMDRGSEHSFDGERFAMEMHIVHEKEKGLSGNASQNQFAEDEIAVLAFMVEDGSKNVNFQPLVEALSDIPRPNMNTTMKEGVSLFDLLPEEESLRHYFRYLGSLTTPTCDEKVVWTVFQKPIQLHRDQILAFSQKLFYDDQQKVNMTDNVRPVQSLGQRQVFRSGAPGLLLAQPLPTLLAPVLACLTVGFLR

Structures are written as SMILES.

Sequence of Carbonic anhydrase 1 (P00915 whole entry): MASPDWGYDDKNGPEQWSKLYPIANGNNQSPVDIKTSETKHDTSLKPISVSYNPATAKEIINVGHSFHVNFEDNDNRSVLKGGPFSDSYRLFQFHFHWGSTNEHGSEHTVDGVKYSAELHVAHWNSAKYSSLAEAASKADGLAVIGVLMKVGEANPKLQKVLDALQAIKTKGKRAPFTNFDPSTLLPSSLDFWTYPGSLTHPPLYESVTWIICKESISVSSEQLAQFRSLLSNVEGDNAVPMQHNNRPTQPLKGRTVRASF
Description for Carbonic anhydrase 1: Inhibition of human recombinant carbonic anhydrase I (CA1)
Description for Carbonic anhydrase 4: Inhibition of bovine carbonic anhydrase IV (CA4) from bovine lung microsomes

As to `NS(=O)(=O)c1nc2ccc(OCCOC(=O)c3c(F)c(F)c(F)c(F)c3F)cc2s1`, the Ki at Carbonic anhydrase 1 worked out at 65 nM; at Carbonic anhydrase 4, 11 nM.

Regarding `NS(=O)(=O)c1ccccc1NS(=O)(=O)c1c(F)c(F)c(F)c(F)c1F`, the Ki came to 1390 nM on Carbonic anhydrase 1 and 680 nM on Carbonic anhydrase 4.

Turning to `NS(=O)(=O)c1nc2ccc(OCCOS(=O)(=O)C(F)(F)C(F)(F)C(F)(F)C(F)(F)F)cc2s1`, the Ki came out at 19 nM at Carbonic anhydrase 1 and 6 nM on Carbonic anhydrase 4.

On to `NS(=O)(=O)c1ccc(NS(=O)(=O)C(F)(F)F)c(Br)c1`, for which the Ki stood at 200000 nM at Carbonic anhydrase 1 and 47000 nM on Carbonic anhydrase 4.

Turning to `NS(=O)(=O)c1ccc(COS(=O)(=O)C(F)(F)C(F)(F)C(F)(F)C(F)(F)F)cc1`, the Ki came out at 24500 nM on Carbonic anhydrase 1 and 10600 nM at Carbonic anhydrase 4.

In the case of `NS(=O)(=O)c1nnc(NC(=O)CCNC(=O)C(F)(F)C(F)(F)C(F)(F)C(F)(F)C(F)(F)C(F)(F)C(F)(F)C(F)(F)F)s1`, the results for the Ki at Carbonic anhydrase 1 and at Carbonic anhydrase 4 were 300 nM and 8 nM, respectively.

As for `NS(=O)(=O)c1cc(S(N)(=O)=O)c(NS(=O)(=O)C(F)(F)C(F)(F)C(F)(F)C(F)(F)C(F)(F)C(F)(F)C(F)(F)C(F)(F)F)c(Cl)c1Cl`, the Ki turned out to be 8000 nM at Carbonic anhydrase 1 and 765 nM at Carbonic anhydrase 4.

As for `NS(=O)(=O)c1cc(S(N)(=O)=O)c(NS(=O)(=O)C(F)(F)C(F)(F)C(F)(F)C(F)(F)F)c(Cl)c1Cl`, the Ki on Carbonic anhydrase 1 worked out at 5100 nM; at Carbonic anhydrase 4, 160 nM.

As for `NS(=O)(=O)c1nnc(NC(=O)CCNS(=O)(=O)C(F)(F)F)s1`, the results for the inhibition constant (Ki) at Carbonic anhydrase 1 and at Carbonic anhydrase 4 were 3000 nM and 40 nM, respectively.

As to `NS(=O)(=O)c1cccc(NS(=O)(=O)C(F)(F)C(F)(F)C(F)(F)C(F)(F)F)c1`, the inhibition constant Ki on Carbonic anhydrase 1 was determined as 18400 nM; at Carbonic anhydrase 4, 590 nM.

As to `NS(=O)(=O)c1ccc(CNC(=O)C(F)(F)C(F)(F)C(F)(F)C(F)(F)C(F)(F)C(F)(F)C(F)(F)C(F)(F)F)cc1`, the Ki turned out to be 1000 nM at Carbonic anhydrase 1 and 750 nM on Carbonic anhydrase 4.

For `NS(=O)(=O)c1ccc(NS(=O)(=O)c2c(F)c(F)c(F)c(F)c2F)c(Cl)c1`, the Ki on Carbonic anhydrase 1 is 1450 nM; at Carbonic anhydrase 4 it was 540 nM.

For `NS(=O)(=O)c1ccc(NC(=O)c2c(F)c(F)c(F)c(F)c2F)c(Br)c1`, the Ki at Carbonic anhydrase 1 was 1870 nM; at Carbonic anhydrase 4, 865 nM.

Consider `NS(=O)(=O)c1ccc(NS(=O)(=O)c2c(F)c(F)c(F)c(F)c2F)cc1`, for which the Ki at Carbonic anhydrase 1 turned out to be 890 nM; at Carbonic anhydrase 4, 410 nM.

With `NS(=O)(=O)c1ccc(NS(=O)(=O)C(F)(F)C(F)(F)C(F)(F)C(F)(F)C(F)(F)C(F)(F)C(F)(F)C(F)(F)F)c(Cl)c1`, the values for the Ki on Carbonic anhydrase 1 and on Carbonic anhydrase 4 were 2480 nM and 10300 nM, respectively.

In the case of `NS(=O)(=O)c1ccc(NC(=O)C(F)(F)C(F)(F)C(F)(F)C(F)(F)C(F)(F)C(F)(F)C(F)(F)C(F)(F)F)cc1`, the Ki at Carbonic anhydrase 1 came to 1400 nM; at Carbonic anhydrase 4, 850 nM.

Take `NS(=O)(=O)c1ccccc1NS(=O)(=O)C(F)(F)C(F)(F)C(F)(F)C(F)(F)F`: the Ki was determined as 22000 nM on Carbonic anhydrase 1 and 900 nM at Carbonic anhydrase 4.

Turning to `NS(=O)(=O)c1ccc(CNS(=O)(=O)C(F)(F)F)cc1`, the Ki on Carbonic anhydrase 1 was found to be 138000 nM; at Carbonic anhydrase 4, 24500 nM.

For `NS(=O)(=O)c1ccc(NS(=O)(=O)C(F)(F)C(F)(F)C(F)(F)C(F)(F)C(F)(F)C(F)(F)C(F)(F)C(F)(F)F)c(F)c1`, the Ki at Carbonic anhydrase 1 worked out at 1450 nM; at Carbonic anhydrase 4 it was 500 nM.

As for `NS(=O)(=O)c1ccc(CNS(=O)(=O)c2c(F)c(F)c(F)c(F)c2F)cc1`, the Ki was found to be 790 nM on Carbonic anhydrase 1 and 240 nM on Carbonic anhydrase 4.

On to `NS(=O)(=O)c1ccc(CCOC(=O)c2c(F)c(F)c(F)c(F)c2F)cc1`, for which the inhibition constant (Ki) on Carbonic anhydrase 1 was found to be 1250 nM; on Carbonic anhydrase 4 it was 400 nM.

`NS(=O)(=O)c1ccc(Nc2ccnc(NS(=O)(=O)C(F)(F)C(F)(F)C(F)(F)C(F)(F)F)n2)cc1`: the Ki at Carbonic anhydrase 1 is 6000 nM; on Carbonic anhydrase 4 it was 30 nM.

Consider `NS(=O)(=O)c1ccc(NS(=O)(=O)c2ccc(NS(=O)(=O)c3c(F)c(F)c(F)c(F)c3F)cc2)cc1`, for which the Ki at Carbonic anhydrase 1 came to 125 nM; on Carbonic anhydrase 4, 15 nM.

In the case of `NS(=O)(=O)c1ccccc1NS(=O)(=O)C(F)(F)F`, the values for the Ki on Carbonic anhydrase 1 and on Carbonic anhydrase 4 were 175000 nM and 97000 nM, respectively.

As for `NS(=O)(=O)c1ccc(NC(=O)C(F)(F)C(F)(F)C(F)(F)C(F)(F)C(F)(F)C(F)(F)C(F)(F)C(F)(F)F)c(Cl)c1`, the results for the Ki on Carbonic anhydrase 1 and at Carbonic anhydrase 4 were 2300 nM and 600 nM, respectively.

Take `NS(=O)(=O)c1cccc(NS(=O)(=O)c2ccc(NS(=O)(=O)C(F)(F)F)cc2)c1`: the inhibition constant Ki on Carbonic anhydrase 1 came to 5000 nM; at Carbonic anhydrase 4, 45 nM.

As to `NS(=O)(=O)c1ccc(CCNS(=O)(=O)C(F)(F)C(F)(F)C(F)(F)C(F)(F)C(F)(F)C(F)(F)C(F)(F)C(F)(F)F)cc1`, the Ki on Carbonic anhydrase 1 was 965 nM; at Carbonic anhydrase 4, 470 nM.

On to `NS(=O)(=O)c1ccc(CCOS(=O)(=O)C(F)(F)C(F)(F)C(F)(F)C(F)(F)C(F)(F)C(F)(F)C(F)(F)C(F)(F)F)cc1`, for which the values for the Ki at Carbonic anhydrase 1 and at Carbonic anhydrase 4 were 22000 nM and 12300 nM, respectively.

For `NS(=O)(=O)c1nc2ccc(OS(=O)(=O)C(F)(F)C(F)(F)C(F)(F)C(F)(F)F)cc2s1`, the Ki stood at 29 nM at Carbonic anhydrase 1 and 7 nM at Carbonic anhydrase 4.

Take `NS(=O)(=O)c1ccc(Nc2ccnc(NC(=O)C(F)(F)C(F)(F)C(F)(F)C(F)(F)C(F)(F)C(F)(F)C(F)(F)C(F)(F)F)n2)cc1`: the Ki amounted to 4400 nM on Carbonic anhydrase 1 and 36 nM at Carbonic anhydrase 4.

On to `NS(=O)(=O)c1ccc(NS(=O)(=O)C(F)(F)C(F)(F)C(F)(F)C(F)(F)F)c(Cl)c1`, for which the figures for the Ki on Carbonic anhydrase 1 and on Carbonic anhydrase 4 were 10200 nM and 880 nM, respectively.

In the case of `NS(=O)(=O)c1nc2ccc(OS(=O)(=O)c3c(F)c(F)c(F)c(F)c3F)cc2s1`, the inhibitory constant (Ki) at Carbonic anhydrase 1 worked out at 25 nM; on Carbonic anhydrase 4 it was 6 nM.

For the compound `NS(=O)(=O)c1cccc(NS(=O)(=O)c2ccc(NC(=O)C(F)(F)C(F)(F)C(F)(F)C(F)(F)C(F)(F)C(F)(F)C(F)(F)C(F)(F)F)cc2)c1`, the figures for the Ki on Carbonic anhydrase 1 and on Carbonic anhydrase 4 were 3000 nM and 30 nM, respectively.

As to `NS(=O)(=O)c1ccc(NS(=O)(=O)c2ccc(NS(=O)(=O)C(F)(F)F)cc2)cc1`, the Ki on Carbonic anhydrase 1 was 4000 nM; on Carbonic anhydrase 4, 40 nM.

For `NS(=O)(=O)c1nc2ccc(OS(=O)(=O)C(F)(F)F)cc2s1`, the results for the Ki on Carbonic anhydrase 1 and on Carbonic anhydrase 4 were 55 nM and 10 nM, respectively.

As to `NS(=O)(=O)c1ccc(NS(=O)(=O)C(F)(F)F)cc1`, the Ki stood at 166000 nM at Carbonic anhydrase 1 and 64600 nM at Carbonic anhydrase 4.

Regarding `NS(=O)(=O)c1ccc(Nc2ccnc(NS(=O)(=O)c3c(F)c(F)c(F)c(F)c3F)n2)cc1`, the values for the Ki on Carbonic anhydrase 1 and at Carbonic anhydrase 4 were 325 nM and 24 nM, respectively.

Turning to `NS(=O)(=O)c1ccc(CNC(=O)c2c(F)c(F)c(F)c(F)c2F)cc1`, the inhibition constant Ki amounted to 980 nM on Carbonic anhydrase 1 and 350 nM at Carbonic anhydrase 4.

Turning to `NS(=O)(=O)c1nnc(NC(=O)CCNS(=O)(=O)C(F)(F)C(F)(F)C(F)(F)C(F)(F)F)s1`, the results for the Ki on Carbonic anhydrase 1 and on Carbonic anhydrase 4 were 300 nM and 11 nM, respectively.

Regarding `NS(=O)(=O)c1ccc(NS(=O)(=O)c2ccc(NC(=O)c3c(F)c(F)c(F)c(F)c3F)cc2)cc1`, the inhibition constant (Ki) on Carbonic anhydrase 1 came to 6600 nM; at Carbonic anhydrase 4 it was 39 nM.

Consider `NS(=O)(=O)c1cccc(NS(=O)(=O)c2ccc(NS(=O)(=O)c3c(F)c(F)c(F)c(F)c3F)cc2)c1`, for which the figures for the Ki at Carbonic anhydrase 1 and at Carbonic anhydrase 4 were 150 nM and 16 nM, respectively.

With `Cn1nc(S(N)(=O)=O)sc1=NS(=O)(=O)C(F)(F)C(F)(F)C(F)(F)C(F)(F)F`, the figures for the Ki at Carbonic anhydrase 1 and on Carbonic anhydrase 4 were 350 nM and 10 nM, respectively.

`NS(=O)(=O)c1ccc(NS(=O)(=O)C(F)(F)C(F)(F)C(F)(F)C(F)(F)F)cc1`: the Ki at Carbonic anhydrase 1 turned out to be 15200 nM; at Carbonic anhydrase 4, 480 nM.

For the compound `NS(=O)(=O)c1nc2ccc(OCCOC(=O)C(F)(F)C(F)(F)C(F)(F)C(F)(F)C(F)(F)C(F)(F)C(F)(F)C(F)(F)F)cc2s1`, the figures for the Ki on Carbonic anhydrase 1 and on Carbonic anhydrase 4 were 24 nM and 7 nM, respectively.

Regarding `Cn1nc(S(N)(=O)=O)s/c1=N/S(=O)(=O)c1ccc(NC(=O)C(F)(F)C(F)(F)C(F)(F)C(F)(F)C(F)(F)C(F)(F)C(F)(F)C(F)(F)F)cc1`, the Ki on Carbonic anhydrase 1 came out at 900 nM; at Carbonic anhydrase 4, 12 nM.

`NS(=O)(=O)c1ccc(CCNC(=O)C(F)(F)C(F)(F)C(F)(F)C(F)(F)C(F)(F)C(F)(F)C(F)(F)C(F)(F)F)cc1`: the inhibitory constant (Ki) amounted to 950 nM at Carbonic anhydrase 1 and 520 nM at Carbonic anhydrase 4.

Take `NS(=O)(=O)c1ccc(CCNS(=O)(=O)c2c(F)c(F)c(F)c(F)c2F)cc1`: the Ki on Carbonic anhydrase 1 was 760 nM; at Carbonic anhydrase 4, 230 nM.

`NS(=O)(=O)c1ccc(NS(=O)(=O)c2ccc(NS(=O)(=O)C(F)(F)C(F)(F)C(F)(F)C(F)(F)C(F)(F)C(F)(F)C(F)(F)C(F)(F)F)cc2)cc1`: the Ki came out at 3000 nM on Carbonic anhydrase 1 and 29 nM at Carbonic anhydrase 4.

As to `NS(=O)(=O)c1ccc(NS(=O)(=O)C(F)(F)C(F)(F)C(F)(F)C(F)(F)C(F)(F)C(F)(F)C(F)(F)C(F)(F)F)c(I)c1`, the Ki turned out to be 3400 nM at Carbonic anhydrase 1 and 15000 nM at Carbonic anhydrase 4.

In the case of `NS(=O)(=O)c1nc2ccc(NS(=O)(=O)C(F)(F)C(F)(F)C(F)(F)C(F)(F)C(F)(F)C(F)(F)C(F)(F)C(F)(F)F)cc2s1`, the Ki at Carbonic anhydrase 1 was 49 nM; on Carbonic anhydrase 4 it was 7 nM.

With `Cn1nc(S(N)(=O)=O)s/c1=N/S(=O)(=O)c1ccc(NS(=O)(=O)C(F)(F)C(F)(F)C(F)(F)C(F)(F)F)cc1`, the Ki is 1000 nM at Carbonic anhydrase 1 and 24 nM on Carbonic anhydrase 4.

Take `NS(=O)(=O)c1cc(S(N)(=O)=O)c(NC(=O)C(F)(F)C(F)(F)C(F)(F)C(F)(F)C(F)(F)C(F)(F)C(F)(F)C(F)(F)F)cc1Cl`: the values for the Ki at Carbonic anhydrase 1 and on Carbonic anhydrase 4 were 810 nM and 130 nM, respectively.

Turning to `NS(=O)(=O)c1nc2ccc(OC(=O)c3c(F)c(F)c(F)c(F)c3F)cc2s1`, the Ki on Carbonic anhydrase 1 was 105 nM; at Carbonic anhydrase 4, 9 nM.

On to `NS(=O)(=O)c1ccc(COS(=O)(=O)c2c(F)c(F)c(F)c(F)c2F)cc1`, for which the Ki came out at 290 nM on Carbonic anhydrase 1 and 100 nM at Carbonic anhydrase 4.

On Carbonic anhydrase 1, `Cn1nc(S(N)(=O)=O)s/c1=N/S(=O)(=O)c1ccc(NC(=O)c2c(F)c(F)c(F)c(F)c2F)cc1` registered a Ki of 1600 nM.
